A short description of this data set: Example 4b: breath acetone and 2-butanone by Type 1 mGC after soft gel with 2-butanol and isopropyl alcohol. The settings on record: 2-butanol (40 mg) and isopropyl alcohol (30 mg). It counts as in vivo, human. The method, then:
Shown in Panel A of FIG. 76 is the 1st derivative mGC response (proportional to EDIM breath concentration) in a Type 1 SMART Device for acetone and 2-butanone as a function of breath sampling times post ingestion of the capsule.
Panel B depicts the change from baseline of the 1st derivative mGC response. Time 0 is baseline (immediately before capsule is ingested containing the two AEMs). […] Note how the 2-butanone levels in breath begin to fall after 20 min, whereas those of acetone slowly continue to rise over the study period.

SMILES strings stand for the structures.

For the compound `CCC(C)=O` [Formulation 2-butanone, 2-butanone], the “half life in breath” value was “about 45 minutes”. For the setting “fasting subject”, the “Tmax of breath marker” value is 20 min.

(Values after patent US20170074857A1, “MEDICATION ADHERENCE MONITORING DEVICE” (UNIVERSITY OF FLORIDA RESEARCH FOUNDATION, INC., priority 2014, published 2017).)
